Data set [1] has as its target T1, α-thrombin (Homo sapiens, UniProt P00734). As to the kind of experiment: Competitive binding assay: α-thrombin binding to fluoresceinated γ′ 408-427 peptide. Set-up: incubating 2 nM fluoresceinated peptide with 2 μM α-thrombin; thrombin: gift of Dr. John Fenton, II and Dr. Walter Kisiel; tracer peptide: Research Genetics. The note with it: 2 nM fluoresceinated peptide with 2 μM α-thrombin. An excerpt: Proteins, Peptides, and DNA Aptamers. Human α-thrombin was generously provided by Dr. John Fenton, II (New York State Department of Health, Albany, N.Y.) and Dr. Walter Kisiel (University of New Mexico, Albuquerque, N. Mex.). Human γ-thrombin was obtained from Haematologic Technologies, Inc. (Essex Junction, Vt.). Tyrosine-phosphorylated derivatives of peptides corresponding to the γ′ chain carboxyl terminus, […] (SEQ ID NO: 11), were obtained from Research Genetics, Inc. (Huntsville, Ala.) and GeneMed Synthesis, Inc. (South San Francisco, Calif.). The peptides were purified to >95% purity by HPLC, and their molecular weights were verified by mass spectrometry. Tyrosine-sulfated, amino-terminal acetylated hirudin peptide 53-65 was obtained from Bachem, Inc. (Torrance, Calif.) and tyrosine-sulfated hirudin peptide 54-65 was obtained from Sigma (St. Louis, Mo.). Single-stranded DNA aptamers 5′-GGT-TGG-TGT-GGT-TGG-3′ (SEQ ID NO: 5), referred to as HD1, and 5′-AGT-CCG-TGG-TAG-GGC-AGG-TTG-GGG-TGA-CT-3′ (SEQ ID NO: 6), referred to as HD22, were generously provided by Dr. Jeffrey I. Weitz (McMaster University, Hamilton, ONT, Canada). A monoclonal antibody directed against thrombin exosite II (34) was a gift from Dr. Douglas M. Tollefsen (Washington University, St. Louis, Mo.). Production of Recombinant Fibrinogens Recombinant fibrinogen molecules were expressed with tyrosine to phenylalanine mutations in the γ′ chain at positions γ′ 418 and/or γ′ 422. Plasmid pAG-γ′ (10) was used as the template for site-directed mutagenesis (35) using the primer GAA-ACA-GAA-TTT-GAC-TCA-CTT (SEQ ID NO: 7) for Y418F, GAC-TCA-CTT-TTC-CCT-GAG-GAT (SEQ ID NO: 8) for Y422F, and GAA-ACA-GAA-TTT-GAC-TCA-CTT-TTC-CCT-GAG-GAT (SEQ ID NO: 9) for Y418F/Y422F. The mutated pAG-γ′ plasmids were co-transfected with pBD-1 into a baby hamster kidney cell line as described previously (10). Recombinant fibrinogens were labeled with 1 mCi/ml ^35SO4 in serum-free medium and immunoprecipitated from the medium using a rabbit polyclonal anti-fibrinogen antiserum (Accurate Chemical and Scientific Corp., Westbury, N.Y.) as described previously (10). The amount of fibrinogen secreted during the labeling was determined using an ELISA described previously (10). Identical amounts of radiolabeled fibrinogens (300 ng) were resolved by SDS-polyacrylamide gel electrophoresis on 10% gels under reducing conditions (36) and exposed to X-ray film. Thrombin/γ′ Peptide Binding Assay. To quantitate the binding of thrombin to the γ′ chain carboxyl terminus, 50 nM […]-Y (PO3)-DSL-Y (PO3)—PEDDL (SEQ ID NO: 10) peptide (Research Genetics), corresponding to the carboxyl terminal twenty amino acids of the γ′ chain, was labeled for 1 hour at 37° C. with a 5-fold molar excess of fluorescein succinimidyl ester (PanVera) in 100 mM potassium phosphate, pH 7.0 as per the manufacturer's protocol. Unreacted fluorescein succinimidyl ester was reacted with 100 mM Tris, pH 8.0 for 30 minutes and removed by desalting the fluoresceinated peptide on Sephadex G-15 in 137 mM NaCl/2.7 mM KCl/10 mM HEPES, pH 7.4. 2 nM fluoresceinated peptide was incubated with the indicated concentrations of thrombin for 30 seconds at 22° C. in 50 μg/ml BSA/137 mM NaCl/2.7 mM KCl/10 mM HEPES, pH 7.4. Fluorescence polarization was measured following excitation at 488 nm and emission at 535 nm. The data are fit to the equation: y=x/(b+x) where y is fit to x, using “x” as the concentration of thrombin and “b” as the Kd.
Competitive binding assays were performed by incubating 2 nM fluoresceinated peptide with 2 μM α-thrombin in the presence of the indicated concentrations of competing ligand. Fluorescence polarization was measured following excitation at 488 nm and emission at 535 nm.

Data set [2] deals with T1, α-thrombin. As to the kind of experiment: Thrombin/γ′ peptide binding assay (fluorescence polarization). Set-up: Human α-thrombin; gift: Dr. John Fenton, II (New York State Department of Health) and Dr. Walter Kisiel (University of New Mexico). The note with it: 2 nM fluoresceinated peptide, 22° C., pH 7.4, read-out: Kd, binding of α-thrombin to fluoresceinated γ′ 408-427 peptide. An excerpt:
Proteins, Peptides, and DNA Aptamers. Human α-thrombin was generously provided by Dr. John Fenton, II (New York State Department of Health, Albany, N.Y.) and Dr. Walter Kisiel (University of New Mexico, Albuquerque, N. Mex.). Human γ-thrombin was obtained from Haematologic Technologies, Inc. (Essex Junction, Vt.). Tyrosine-phosphorylated derivatives of peptides corresponding to the γ′ chain carboxyl terminus, […] (SEQ ID NO: 11), were obtained from Research Genetics, Inc. (Huntsville, Ala.) and GeneMed Synthesis, Inc. (South San Francisco, Calif.). The peptides were purified to >95% purity by HPLC, and their molecular weights were verified by mass spectrometry. […] The amount of fibrinogen secreted during the labeling was determined using an ELISA described previously (10). […] To quantitate the binding of thrombin to the γ′ chain carboxyl terminus, 50 nM […]-Y (PO3)-DSL-Y (PO3)—PEDDL (SEQ ID NO: 10) peptide (Research Genetics), corresponding to the carboxyl terminal twenty amino acids of the γ′ chain, was labeled for 1 hour at 37° C. with a 5-fold molar excess of fluorescein succinimidyl ester (PanVera) in 100 mM potassium phosphate, pH 7.0 as per the manufacturer's protocol. […] Fluorescence polarization was measured following excitation at 488 nm and emission at 535 nm. […]

The target in data set [3] is T1, α-thrombin. As to the kind of experiment: Thrombin inhibition assay (ATIII, with or without heparin, Chromozym TH). The data set is classed as biochemical. Set-up: incubating 2 nM fluoresceinated peptide with 2 μM α-thrombin; thrombin: gift of Dr. John Fenton, II and Dr. Walter Kisiel; tracer peptide: Research Genetics. The procedure:
Thrombin Inhibition Assay. […] In some experiments, 0.33 μM heparin (Sigma) was included in the reaction. The inhibition reaction was terminated by the addition of 0.3 ml of a vast molar excess of substrate, 1.25 mg/ml Chromozym TH (Boehringer Mannheim, Indianapolis, Ind.), and the remaining thrombin activity was subsequently measured by monitoring the absorbance at 405 nm for 15 minutes at 22° C. Results Two Tyrosine Residues in the γ′ Chain Are Sulfated. […] Since the γ′ chain differs from the γA chain only in its carboxyl terminal 20 amino acids, it has been assumed that the sulfated residues are within this 20 amino acid sequence, although the addition of the γ′ sequence could also induce conformational changes in the γ chain that expose new sites for sulfation upstream of the carboxyl terminus. […] The carboxyl terminus of the γ′ chain contains two potential sites for tyrosine sulfation at positions γ′ Y418 and γ′ Y422. […] However, no direct evidence of sulfation at γ′ Y418 or γ′ Y422 was presented. Furthermore, in both bovine and rat fibrinogen, the γ′ chain terminates at the equivalent of γ′ 420, prior to γ′ Y422 (37, 38). The rat γ′ chain does, however, contain sulfotyrosine (39). […]

Data set [4] deals with normal human reference plasma. The data set is described as follows: Activated partial thromboplastin time (aPTT) assay in human plasma. The class given is biochemical. The note with it: human plasma; 0-1 mM peptide. The procedure: Activated Partial Thromboplastin Time (aPTT) Assay. This anti-coagulation assay was chosen for testing the γ′ peptides due to its sensitivity to heparin-like compounds, its ease of use, and the ability to automate the procedure. An MLA 1600 instrument (Organon Teknika) was used to quantitate the effect of the γ′ peptides on the aPTT, using the manufacturer's protocol. Briefly, 0-1 mM γ′ peptides or 0-10 units/ml unfractionated heparin was added to 50 μl of normal reference plasma (Ortho) and manually loaded into the MLA 1600. The MLA 1600 added SynthASil aPTT reagent (Ortho) to initiate clotting, and clot formation was monitored spectrophotometrically for 106 seconds. […] Prothrombin Time/International Normalized Ratio Assay. This clotting assay is less sensitive to heparin than the aPTT, and may be used to determine if a γ′ peptide is capable of prolonging the prothrombin time (PT) to the same extent as the 3 aPTT. One-stage PT assays may be performed using an MLA 1600 instrument according to the manufacturer's protocol. Briefly, 0-1 mM γ′ peptide or scrambled peptide or 0-10 units/ml unfractionated heparin may be added to 50 μl of normal reference plasma (Ortho) and manually loaded into the MLA 1600. The MLA 1600 may be used to add recombinant thromboplastin (Recombiplastin, Ortho) to initiate clotting, and clot formation monitored spectrophotometrically for 106 seconds. If a clot is not generated within 106 seconds, the MLA will automatically extend the observation time to 212 seconds.
An aPTT assay was performed using human plasma to determine the effect of γ′ peptide on the clotting time in this system. […] The MLA 1600 added SynthASil aPTT reagent (Ortho) to initiate clotting and clot formation was monitored spectrophotometrically for 106 seconds. […]
An aPTT assay was performed using human plasma to determine the effect of γ′ deletion peptides on the clotting time in this system. […] The MLA 1600 added SynthASil aPTT reagent (Ortho) to initiate clotting and clot formation was monitored spectrophotometrically for 106 seconds. […]

The next data set deals with thrombin (Homo sapiens, UniProt P00734). The note with it: prior studies by others (43); read-out: Ki, direct inhibitory activity towards thrombin; cited from earlier work.

We go through six compounds from patent US7615527B2, “Peptides which modulate blood coagulation and methods of use thereof” (Oregon Health & Science University, priority 2001, dated 2009).

Square brackets hold non-standard residues; d marks the D form. Ends that are not written are not given here. Peptide text beside a SMILES is read from it. pY = N[C@@H](Cc1ccc(OP(=O)(O)O)cc1)C(=O)O

Take “5′-AGT-CCG-TGG-TAG-GGC-AGG-TTG-GGG-TGA-CT-3′ [HD22, reference compound]”: the “Inhibition of α-thrombin binding to fluoresceinated γ′ 408-427 peptide (in words)” value (“Inhibition of α-thrombin binding” for short) with α-thrombin [1] was “more potent competitor than HD1”.

With `CC(C)C[C@H](NC(=O)[C@H](CC(=O)O)NC(=O)[C@H](CC(=O)O)NC(=O)[C@H](CCC(=O)O)NC(=O)[C@@H]1CCCN1C(=O)[C@H](Cc1ccc(OP(=O)(O)O)cc1)NC(=O)[C@H](CC(C)C)NC(=O)[C@H](CO)NC(=O)[C@H](CC(=O)O)NC(=O)[C@H](Cc1ccc(OP(=O)(O)O)cc1)NC(=O)[C@H](CCC(=O)O)NC(=O)[C@@H](NC(=O)[C@H](CCC(=O)O)NC(=O)[C@H](C)NC(=O)[C@@H]1CCCN1C(=O)[C@H](Cc1c[nH]cn1)NC(=O)[C@H](CCC(=O)O)NC(=O)[C@@H]1CCCN1C(=O)[C@H](CCCNC(=N)N)NC(=O)[C@@H](N)C(C)C)[C@@H](C)O)C(=O)O` [γ′ 408-427] (H-VRPEHPAETE[pY]DSL[pY]PEDDL-OH; N-terminus and C-terminus assumed), the Kd on α-thrombin [2] turned out to be 430 ± 80 nM. Moreover, the “Effect on heparin's acceleration of thrombin inhibition by ATIII” value on α-thrombin [3] (0.33 μM heparin, 13.7 nM ATIII, 0-1.0 mM γ′ peptide, 15 minutes) is “antagonized the accelerative activity of heparin in a dose-dependent manner”. Also, the “Direct inhibition of thrombin” value at α-thrombin [3] (concentrations up to 1 mM, data not shown) was “not directly inhibitory”. The inhibitory constant (Ki) on α-thrombin [1] (read-out: Ki, competition for α-thrombin binding to fluoresceinated γ′ 408-427 peptide) was found to be 520 ± 140 nM.

Consider “AETEY(*)DSLY(*)PEDDL (AETEYDSLYPEDDL; not fully specified (residues 5, 9); printed as AETEY(*)DSLY(*)PEDDL) [peptide 414-427]”, for which the “Anticoagulant effect in aPTT (in words)” value in data set [4] is on record as “reduced level of anticoagulant activity”. In the data set with α-thrombin [1], the “Inhibition of α-thrombin binding” value is reported as “lower affinity”.

As for “EY(*)DSLY(*)PEDDL (EYDSLYPEDDL; not fully specified (residues 2, 6); printed as EY(*)DSLY(*)PEDDL) [peptide 417-427]”, the “Anticoagulant effect in aPTT (in words)” value in data set [4] is “further reduction in activity”. In the data set with α-thrombin [1], the “Inhibition of α-thrombin binding” value is “completely inactive”.

For the compound “VRPEHPAETEY(*)DSLY(*)PE (VRPEHPAETEYDSLYPE; not fully specified (residues 11, 15); printed as VRPEHPAETEY(*)DSLY(*)PE) [peptide 408-424]”, the “Inhibition of α-thrombin binding” value with α-thrombin [1] is listed as “lower affinity”.

Regarding “VRPEHPAETEYDSLYPEDDL [nonphosphorylated peptide]”, on thrombin, the Ki is 130000 nM. Further, the “Inhibition of α-thrombin binding” value on α-thrombin [1] is “completely inactive”.
